The text below walks through data of ChEMBL document CHEMBL3714738, “Novel indole, indazole and benzimidazole arylamides as p2x3 and/or p2x2/3 antagonists” (2012).

Experiment [1] addresses T1, P2X purinoceptor 3 (Rattus norvegicus, UniProt P49654).
T1 sequence (P49654 whole entry): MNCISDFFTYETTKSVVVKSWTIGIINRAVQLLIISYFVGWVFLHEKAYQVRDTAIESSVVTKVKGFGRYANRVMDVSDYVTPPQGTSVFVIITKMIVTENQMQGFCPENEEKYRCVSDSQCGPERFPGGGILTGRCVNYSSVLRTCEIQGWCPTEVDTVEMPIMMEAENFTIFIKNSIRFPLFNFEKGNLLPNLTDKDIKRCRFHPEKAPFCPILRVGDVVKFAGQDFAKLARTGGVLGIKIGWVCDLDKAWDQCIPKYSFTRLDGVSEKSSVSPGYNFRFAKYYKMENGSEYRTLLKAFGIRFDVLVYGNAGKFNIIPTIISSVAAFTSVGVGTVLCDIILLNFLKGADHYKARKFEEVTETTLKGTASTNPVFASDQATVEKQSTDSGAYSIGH
Briefly: Antagonist activity against rat P2X3 receptor expressed in CHOK1 cells assessed as inhibition of alpha,beta-meATP-induced calcium response incubated for 20 mins by Fluo-3AM dye based FLIPR assay. Format: functional, cell-based, CHO-K1.

Experiment [2] deals with T2, P2X2/P2X3 heterotrimeric receptor (Homo sapiens, UniProt P56373+Q9UBL9).
T2 sequence (Q9UBL9 whole entry): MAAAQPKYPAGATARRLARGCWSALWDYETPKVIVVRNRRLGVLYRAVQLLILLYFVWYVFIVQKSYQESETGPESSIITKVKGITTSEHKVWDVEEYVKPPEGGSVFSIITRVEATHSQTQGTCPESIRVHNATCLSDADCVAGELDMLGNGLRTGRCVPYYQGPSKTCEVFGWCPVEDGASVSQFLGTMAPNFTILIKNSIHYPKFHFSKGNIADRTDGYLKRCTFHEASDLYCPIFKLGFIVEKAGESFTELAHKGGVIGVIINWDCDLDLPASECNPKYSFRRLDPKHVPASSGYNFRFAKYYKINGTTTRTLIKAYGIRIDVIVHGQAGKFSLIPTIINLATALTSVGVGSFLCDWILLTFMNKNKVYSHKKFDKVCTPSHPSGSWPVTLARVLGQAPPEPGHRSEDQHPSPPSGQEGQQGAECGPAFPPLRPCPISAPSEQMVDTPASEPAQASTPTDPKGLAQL
T2 sequence (P56373 whole entry): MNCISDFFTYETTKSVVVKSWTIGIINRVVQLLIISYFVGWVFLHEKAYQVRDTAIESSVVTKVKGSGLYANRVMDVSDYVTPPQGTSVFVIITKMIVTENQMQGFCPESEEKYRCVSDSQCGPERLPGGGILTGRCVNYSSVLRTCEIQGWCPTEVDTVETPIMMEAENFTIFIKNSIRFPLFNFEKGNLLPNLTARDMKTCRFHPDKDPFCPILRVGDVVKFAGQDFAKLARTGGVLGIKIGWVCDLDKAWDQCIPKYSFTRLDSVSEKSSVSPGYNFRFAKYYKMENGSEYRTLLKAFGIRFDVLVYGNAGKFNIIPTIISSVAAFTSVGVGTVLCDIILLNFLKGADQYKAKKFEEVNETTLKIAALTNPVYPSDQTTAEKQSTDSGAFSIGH
The experiment can be described thus: Antagonist activity against human P2X2/3 receptor expressed in CHOK1 cells assessed as inhibition of alpha,beta-meATP-induced calcium response incubated for 20 mins by Fluo-3AM dye based FLIPR assay. Type of experiment: functional, cell-based, CHO-K1.

pKi: −log10 of the molar value.

Consider `Cc1ccc(-c2cc(C(=O)N[C@@H](C)CO)cc3c2ccn3-c2ccccc2)nc1`, for which the pKi in experiment [1] is 6.99; in experiment [2] it was 5.54.

As to `Cc1ccc(-c2cc(C(=O)N[C@@H](C)CO)cc3c2cnn3CC(C)C)nc1`, the values for the pKi in experiment [1] and in experiment [2] were 6.54 and 5.14, respectively.

Consider `Cc1ccc(-c2cc(C(=O)NCc3cnc(C)cn3)cc3c2ccn3-c2ccccc2)nc1`, for which the pKi is 7.73 in experiment [1] and 6.34 in experiment [2].
